In patent publication US7115632B1, “Sulfonyl aryl or heteroaryl hydroxamic acid compounds” (priority 1999, dated 2006):
Where a name gives a salt, the structure may show the parent alone.

How the values were obtained:
MMP-2 = target: T1, MMP-2 (Homo sapiens, UniProt P08253); assay: In vitro metalloprotease inhibition, fluorogenic MCA peptide substrate; type: biochemical; settings: Inhibition Table B
T1 construct: made in house; provided by Dr. Gregory Goldberg, Washington University
T1 sequence (P08253 110-660): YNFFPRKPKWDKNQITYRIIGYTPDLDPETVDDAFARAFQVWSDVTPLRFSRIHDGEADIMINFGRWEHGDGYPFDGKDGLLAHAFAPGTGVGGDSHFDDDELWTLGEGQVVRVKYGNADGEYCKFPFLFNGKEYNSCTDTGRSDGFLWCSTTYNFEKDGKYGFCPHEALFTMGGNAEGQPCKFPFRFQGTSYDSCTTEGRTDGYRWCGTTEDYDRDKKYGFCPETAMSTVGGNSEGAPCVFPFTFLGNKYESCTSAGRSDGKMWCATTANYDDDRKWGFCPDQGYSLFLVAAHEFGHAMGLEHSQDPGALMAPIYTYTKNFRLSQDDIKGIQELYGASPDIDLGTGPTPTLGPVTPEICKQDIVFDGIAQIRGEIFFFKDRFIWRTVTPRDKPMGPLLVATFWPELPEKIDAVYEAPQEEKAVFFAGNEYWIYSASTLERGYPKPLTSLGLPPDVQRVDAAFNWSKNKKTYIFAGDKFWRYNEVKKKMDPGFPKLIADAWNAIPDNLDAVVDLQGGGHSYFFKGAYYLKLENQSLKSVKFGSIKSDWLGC
Description: (§5) The expressed enzyme was purified first over a heparin agarose column and then over a chelating zinc chloride column. The proenzyme was activated by APMA for use in the assay.

MMP-13 = target: T2, MMP-13 (Homo sapiens, UniProt P45452); assay: as above; type: biochemical; settings: Inhibition Table B
T2 construct: made in house; host or cells: insect cells, baculovirus expression
Description: as §5

MMP-3 = MMP-3 (Homo sapiens, UniProt P08254); assay: as above; type: biochemical; settings: Inhibition Table B
Chain of MMP-3 (P08254 100-477, species assumed): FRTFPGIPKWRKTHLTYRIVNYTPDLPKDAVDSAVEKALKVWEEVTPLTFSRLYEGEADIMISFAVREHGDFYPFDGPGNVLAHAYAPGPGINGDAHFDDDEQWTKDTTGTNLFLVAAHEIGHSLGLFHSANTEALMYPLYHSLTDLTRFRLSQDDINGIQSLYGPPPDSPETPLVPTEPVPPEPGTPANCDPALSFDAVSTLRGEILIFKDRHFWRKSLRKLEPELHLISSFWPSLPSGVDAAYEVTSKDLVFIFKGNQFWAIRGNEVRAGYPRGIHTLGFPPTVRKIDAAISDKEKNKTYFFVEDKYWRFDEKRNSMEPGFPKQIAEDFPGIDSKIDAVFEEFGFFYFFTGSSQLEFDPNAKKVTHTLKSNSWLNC

MMP-8 = MMP-8 (Homo sapiens, UniProt P22894); assay: as above; type: biochemical; settings: Inhibition Table B
Chain of MMP-8 (P22894 101-467, species assumed): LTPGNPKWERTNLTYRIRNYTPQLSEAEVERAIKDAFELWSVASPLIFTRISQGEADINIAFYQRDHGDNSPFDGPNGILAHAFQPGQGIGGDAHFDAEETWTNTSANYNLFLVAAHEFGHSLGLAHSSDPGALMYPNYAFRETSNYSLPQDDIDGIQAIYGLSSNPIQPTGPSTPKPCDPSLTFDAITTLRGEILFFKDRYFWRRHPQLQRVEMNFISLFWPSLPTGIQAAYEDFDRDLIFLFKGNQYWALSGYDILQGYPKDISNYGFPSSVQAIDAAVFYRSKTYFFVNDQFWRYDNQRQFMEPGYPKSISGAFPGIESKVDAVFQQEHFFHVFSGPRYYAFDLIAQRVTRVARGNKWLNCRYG
Procedure: (§1) Briefly, 4-aminophenylmercuric acetate (APMA) or trypsin-activated MMPs were incubated with various concentrations of the inhibitor compound at room temperature for 5 minutes.
(§2) MCA-ProLeuGlyLeuDpaAlaArgNH2, wherein MCA is methoxycoumarin and Dpa is 3-(2,4-dinitrophenyl)-L-2,3-diaminopropionyl alanine.
(§3) The buffer used for assays contained 100 mM Tris-HCl, 100 mM NaCl, 10 mM CaCl2 and 0.05 percent polyethyleneglycol (23) lauryl ether at a pH value of 7.5.
(§4) The ID50 values were calculated from those values.

MT1-MMP = MT1-MMP (Homo sapiens, UniProt P50281); assay: as above; type: biochemical; settings: Inhibition Table B
Procedure: as §1, §2, §3, §4

MMP-9 = target: T3, MMP-9 (Homo sapiens, UniProt P14780); assay: as above; type: biochemical; settings: Inhibition Table B
T3 construct: made in house; host or cells: transfected HT-1080 cells (provided by Dr. Harold Welgus)
T3 sequence (P14780 107-707 limits assumed): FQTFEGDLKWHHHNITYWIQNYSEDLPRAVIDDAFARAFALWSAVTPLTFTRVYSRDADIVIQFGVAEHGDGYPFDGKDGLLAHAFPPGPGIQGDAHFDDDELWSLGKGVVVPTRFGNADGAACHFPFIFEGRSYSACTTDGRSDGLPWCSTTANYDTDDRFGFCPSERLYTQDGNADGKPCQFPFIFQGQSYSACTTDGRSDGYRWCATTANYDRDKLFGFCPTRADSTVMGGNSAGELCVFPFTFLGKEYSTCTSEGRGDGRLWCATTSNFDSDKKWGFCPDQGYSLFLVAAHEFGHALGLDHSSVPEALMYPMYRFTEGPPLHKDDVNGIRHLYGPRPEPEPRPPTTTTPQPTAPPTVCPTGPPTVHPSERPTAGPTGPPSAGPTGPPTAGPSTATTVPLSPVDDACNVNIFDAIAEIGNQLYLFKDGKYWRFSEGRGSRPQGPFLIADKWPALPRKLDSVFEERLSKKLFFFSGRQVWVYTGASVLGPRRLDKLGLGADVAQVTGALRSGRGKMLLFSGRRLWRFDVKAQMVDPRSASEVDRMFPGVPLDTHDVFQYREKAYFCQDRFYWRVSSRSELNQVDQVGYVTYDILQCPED
Procedure: as §1
MMP-1 expressed in transfected HT-1080 cells was provided by Dr. Harold Welgus of Washington University, St. Louis, Mo. The enzyme was also activated using APMA and was then purified over a hydroxamic acid column. Dr. Welgus also provided transfected HT-1080 cells that expressed MMP-9. Transfected cells that expressed MMP-2 were provided by Dr. Gregory Goldberg, also of Washington University. Further specifics for preparation and use of these enzymes can be found in the scientific literature describing these enzymes. See, for example, Enzyme Nomenclature, Academic Press, San Diego, Calif. (1992) and the citations therein, and Frije et al., J. Biol. Chem., 26(24): 16766–16773 (1994).
as §2, §3, §4

MMP-1 = target: T4, MMP-1 (Homo sapiens, UniProt P03956); assay: as above; type: biochemical; settings: Inhibition Table B
T4 construct: made in house; host or cells: transfected HT-1080 cells (provided by Dr. Harold Welgus, Washington University)
T4 sequence (P03956 100-469): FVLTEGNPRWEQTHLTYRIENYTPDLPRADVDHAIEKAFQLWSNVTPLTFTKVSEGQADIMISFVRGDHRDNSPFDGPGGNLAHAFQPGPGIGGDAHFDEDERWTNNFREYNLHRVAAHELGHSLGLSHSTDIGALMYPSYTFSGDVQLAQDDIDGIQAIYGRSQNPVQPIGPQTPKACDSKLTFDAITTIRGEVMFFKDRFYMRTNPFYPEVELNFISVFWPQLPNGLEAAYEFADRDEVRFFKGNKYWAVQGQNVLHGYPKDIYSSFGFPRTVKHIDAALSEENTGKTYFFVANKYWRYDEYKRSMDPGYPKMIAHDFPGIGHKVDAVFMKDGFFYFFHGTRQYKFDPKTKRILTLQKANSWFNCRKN
Description: as §5

[1] = tested on: solid tumor cancers (colorectal, pancreatic, ovarian, prostate); settings: cited from earlier work

SMILES	IC50 (MMP-2) [nM]	IC50 (MMP-13) [nM]	IC50 (MMP-3) [nM]	IC50 (MMP-8) [nM]	IC50 (MT1-MMP) [nM]	IC50 (MMP-9) [nM]	IC50 (MMP-1) [nM]	most common drug-related toxicity ([1]; clinical trials, patients)	rise of cancer-specific antigens (surrogate markers for biological activity) ([1]; patients with advanced, rapidly progressive, treatment-refractory solid tumor cancers)
COc1ccccc1-c1ccc(OC2CCN(S(=O)(=O)c3ccc(OC)c(OC)c3C(=O)NO)CC2)cc1 [Example 22]	15.5	5.5	170	800	2500	300	–	–	–
COc1ccc(S(=O)(=O)N2CCC(Sc3ccccc3)CC2)c(C(=O)NO)c1OC [Example 24, N-Hydroxy-2,3-dimethoxy-6-[[4-(phenylthio)-1-piperidinyl]sulfonyl]benzamide]	0.9	3	400	10.7	25.4	10	> 10000	–	–
COc1ccc(S(=O)(=O)N2CCN(c3ccc(C(F)(F)F)cc3)CC2)c(C(=O)NO)c1OC [Example 26, N-Hydroxy-2,3-dimethoxy-6-[[4-[4-(trifluoromethyl)phenyl]-1-piperazinyl]sulfonyl]benzamide]	6.5	40	1750	37.2	1920	970	> 10000	–	–
COc1ccc(S(=O)(=O)N2CCC(Oc3ccc(-c4cccc(C(F)(F)F)c4)cc3)CC2)c(C(=O)NO)c1OC [Example 27, N-Hydroxyl-2,3-dimethoxy-6-[[4-[[3′-(trifluoromethyl)[1,1′-biphenyl]-4-yl]oxy]-1-piperidinyl]sulfonyl]benzamide]	3.3	3	300	210	690	520	> 10000	–	–
COc1ccc(S(=O)(=O)N2CCC(Oc3ccc(OC(F)(F)F)cc3)CC2)c(C(=O)NO)c1OC [Example 33]	0.9	5	100	–	360	1.5	> 10000	–	–
O=C(NO)c1c(S(=O)(=O)N2CCC(Oc3ccc(C(F)(F)F)cc3)CC2)ccc2c1OCO2 [Example 36]	3	18	600	12.2	300	8	> 10000	–	–
COc1ccc(S(=O)(=O)N2CCC(Oc3ccc(-c4ccccc4C(F)(F)F)cc3)CC2)c(C(=O)NO)c1OC [Example 38, N-Hydroxy-2,3-dimethoxy-6-[[4-[[2′-(trifluoromethyl)[1,1′-biphenyl]-4-yl]oxy]-1-piperidinyl]sulfonyl]benzamide]	20	82	–	1700	–	–	–	–	–
COc1ccc(C(C)C)cc1-c1ccc(OC2CCN(S(=O)(=O)c3ccc(OC)c(OC)c3C(=O)NO)CC2)cc1 [Example 39]	120	100	–	400	–	–	–	–	–
CCOc1ccccc1-c1ccc(OC2CCN(S(=O)(=O)c3ccc(OC)c(OC)c3C(=O)NO)CC2)cc1 [Example 40]	80	50	–	4400	–	–	–	–	–
COc1ccc(N2CCN(S(=O)(=O)c3ccc(OC)c(OC)c3C(=O)NO)CC2)cc1 [Example 41, N-Hydroxy-2,3-dimethoxy-6-[[4-(4-methoxyphenyl)-1-piperazinyl]sulfonyl]benzamide, monohydrochloride]	6	100	8000	120	4000	470	> 10000	–	–
COc1ccc(OC2CCN(S(=O)(=O)c3ccc(OC)c(OC)c3C(=O)NO)CC2)cc1 [Example 45]	1.8	13.9	900	11.4	300	3	> 10000	–	–
COc1ccc(S(=O)(=O)N2CCC(Oc3ccc4c(c3)OCO4)CC2)c(C(=O)NO)c1OC [Example 50, 6-[[4-(1,3-Benzodioxole-5-yloxy)-1-piperinyl]sulfonyl]-N-hydroxy-2,3-dimethoxybenzamide]	1.1	18.6	1300	12.2	270	9	> 10000	–	–
COc1ccc(S(=O)(=O)N2CCN(Cc3ccccc3)CC2)c(C(=O)NO)c1OC [Example 52, N-Hydroxy-2,3-dimethoxy-6-[[4-(phenylmethyl)-1-piperazinyl]sulfonyl]benzamide, monohydrochloride]	1500	4000	–	> 10000	–	–	–	–	–
CCCCOc1ccc(OC2CCN(S(=O)(=O)c3ccc(OC)c(OC)c3C(=O)NO)CC2)cc1 [Example 54, 6-[[4-(4-Butoxyphenoxy)-1-piperidinyl]sulfonyl]-N-hydroxy-2,3-dimethoxybenzamide]	0.8	1.6	31.6	70	200	2	> 10000	–	–
CNC(=O)[C@@H](NC(=O)[C@H](CC(C)C)[C@H](O)C(=O)NO)C(C)(C)C [marimastat, Marimastat]	–	–	–	–	–	–	–	musculoskeletal pain and stiffness	dose-related reduction in the rise of cancer-specific antigens
